pIC50: −log10 of the molar value.
Molecular target: T1, Mycothiol S-conjugate amidase (Mycobacterium tuberculosis (strain ATCC 25618 / H37Rv), UniProt P9WJN1)
T1 sequence (P9WJN1 whole entry): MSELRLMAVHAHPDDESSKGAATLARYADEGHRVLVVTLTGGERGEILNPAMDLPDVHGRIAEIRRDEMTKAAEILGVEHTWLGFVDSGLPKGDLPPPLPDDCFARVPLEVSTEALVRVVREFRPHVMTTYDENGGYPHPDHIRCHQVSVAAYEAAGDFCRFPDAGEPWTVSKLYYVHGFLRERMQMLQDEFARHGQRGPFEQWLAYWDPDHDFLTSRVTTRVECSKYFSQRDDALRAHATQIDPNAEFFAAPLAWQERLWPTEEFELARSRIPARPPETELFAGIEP
Experiment: ChEBML_140808
Description: Inhibition of Mycothiol -S-conjugate amidase (MCA) from mycobacterium tuberculosis

Compound | pIC50
N=C(N)CCCCNC(=O)C(Cc1cc(Br)c(OCCCN)c(Br)c1)N=O (configuration not stated) [3-[4-(3-Amino-propoxy)-3,5-dibromo-phenyl]-N-(4-carbamimidoyl-butyl)-2-[(E)-hydroxyimino]-propionamide] | 5.55
O=NC(Cc1ccc(O)c(Br)c1)C(=O)NCCSSCCNC(=O)C(Cc1ccc(O)c(Br)c1)N=O (configuration not stated) [3-(3-bromo-4-hydroxy-phenyl)-N-[2-(2-{3-(3-bromo-4-hydroxy-phenyl)-2-[hydroxyimino]-propionylamino}-ethyldisulfanyl)-ethyl]-2-[hydroxyimino]-propionamide] | 5.55
